Measured values reported in patent US12466792B2 (priority 2021, dated 2025).

Key:
[1] = target: SARS-COV-2 3CLpro (Severe acute respiratory syndrome coronavirus 2, UniProt P0DTD1); experiment: biochemical
[2] = tested on: SARS-COV-2; experiment: microbe, parasite or virus in culture; type: cell-based; details: Severe acute respiratory syndrome coronavirus 2, 72 h, read-out: ID50 (Antiviral Data)

SMILES | IC50 [1] | IC50 [2]
COc1cccc2[nH]c(C(=O)N(C)[C@@H](CC(C)C)C(=O)N[C@H](C#N)C[C@@H]3CCNC3=O)cc12 | 0.1 to 999 nM | > 100000 nM
CC(C)C[C@H](NC(=O)OCc1cccnc1)C(=O)N[C@H](C#N)C[C@@H]1CCCNC1=O | 0.1 to 999 nM | > 100000 nM
COc1cccc2[nH]c(C(=O)N[C@@H](CC(C)C)C(=O)N[C@H](C#N)C[C@@H]3CCCNC3=O)cc12 | 1000 to 10000 nM | 10100 to 100000 nM
CC(C)C[C@@H](C(=O)N[C@H](C#N)C[C@@H]1CCNC1=O)N(C)C(=O)[C@@H](NC(=O)C(F)(F)F)C(C)C | 1000 to 10000 nM | 10100 to 100000 nM
CC(C)C[C@H](NC(=O)OCc1ccccn1)C(=O)N[C@H](C#N)C[C@@H]1CCCNC1=O | 0.1 to 999 nM | > 100000 nM
CC(C)C[C@H](NC(=O)OCc1ccncc1)C(=O)N[C@H](C#N)C[C@@H]1CCNC1=O | 0.1 to 999 nM | > 100000 nM
CC(C)C[C@@H](C(=O)N[C@H](C#N)C[C@@H]1CCNC1=O)N(C)C(=O)[C@@H](NC(=O)C(F)(F)F)C(C)(C)C | 0.1 to 999 nM | 10100 to 100000 nM
CC(C)C[C@H](NC(=O)OCc1ccccc1)C(=O)N[C@H](C#N)C[C@@H]1CCCNC1=O | 0.1 to 999 nM | 1000 to 10000 nM
CC(C)C[C@H](NC(=O)OCc1ccncc1)C(=O)N[C@H](C#N)C[C@@H]1CCCNC1=O | 0.1 to 999 nM | > 100000 nM
C=CCN(C(=O)c1cc2c(OC)cccc2[nH]1)[C@@H](CC(C)C)C(=O)N[C@H](C#N)C[C@@H]1CCNC1=O | 0.1 to 999 nM | > 100000 nM
